SMILES strings stand for the structures.

A short description of data set [1]: Partition of model by-product compounds between Carrier liquid 2 (poly-alpha-olefin) and organic solvent. In kind it is physicochemical. The settings on record: log {[compound]carrier liquid/[compound]organic solvent}, 2 mL solvent + 3 mL carrier liquid solution, shaken 60 min at room temperature. On the procedure: (§1) Six compounds were dissolved in two different carrier liquids. The six compounds were exemplary for the by-products that may be obtained when wood is subjected to hydrolysis by the reaction of concentrated hydrochloric acid and that may be obtained when the hydrolyzate thus obtained in treated with the carrier liquid. The compounds were • a) betulin, a triterpene having a pentacyclic structure and two hydroxyl groups, • b) abietic acid, i.e. a diterpene compound derived from four isoprene units and a having one carboxylic acid group, • c) linoleic acid, a fatty aid having 18 carbon atoms and two unsaturated bonds, • d) 1-eicosanol, a linear alkanol having 20 carbon atoms, • e) sitosterol, a phytosterol with a chemical structure similar to cholesterol, and • f) limonene, a cyclic terpene having two unsaturated bonds.
Carrier liquid 2 is a poly-alpha-olefin having a kinematic viscosity of 1240 mm^2/s at 40° C. and a kinematic viscosity of 100 mm^2/s at 100° C. (ASTM D445). It has a flash point of 283° C. (ASTM D92). Carrier liquid 2 is immiscible with water.
(§2) In each experiment, 2 mL of an organic solvent was added to 3 mL of the carrier liquid solutions. The admixture obtained were shaken for 60 min at room temperature. The concentration of each compound in each of the carrier liquids was determined and the partition coefficient was calculated. By partition coefficient P is understood the ratio of concentrations of each of the compounds in an organic solvent and in a carrier liquid. The partition coefficient is expressed as
(§3) log P, being log {[compound]carrier liquid/[compound]organic solvent}.
(§4) The partition coefficients are shown in Table 2 for Carrier liquid 1 and in Table 3 for Carrier liquid 2.

Data set [2] in a line: Partition of model by-product compounds between Carrier liquid 1 (paraffin oil) and organic solvent. The settings on record: log {[compound]carrier liquid/[compound]organic solvent}, 2 mL solvent + 3 mL carrier liquid solution, shaken 60 min at room temperature. In kind it is physicochemical. On the procedure:
as §1
Carrier liquid 1 is a paraffin oil with a boiling range of 388 to 709° C. and a kinematic viscosity of 481 mm^2/s at 40° C. and a kinematic viscosity of about 31 at 100° C. (ASTM D445). Carrier liquid 1 is immiscible with water.
as §2, §3, §4

As to `C=C(C)[C@@H]1CC[C@]2(CO)CC[C@]3(C)[C@H](CC[C@@H]4[C@@]5(C)CC[C@H](O)C(C)(C)[C@@H]5CC[C@]43C)[C@@H]12` [betulin], the “Partition coefficient with Carrier liquid 2, Log P” value in data set [1] (Exp. No. 4, solvent methanol) was −0.36; in data set [1] (Exp. No. 5, solvent butanol), −1.09; in data set [1] (Exp. No. 6, solvent acetone) it was −1.03.

As for `CC[C@H](CC[C@@H](C)[C@H]1CC[C@H]2[C@@H]3CC=C4C[C@@H](O)CC[C@]4(C)[C@H]3CC[C@]12C)C(C)C` [sitosterol], the “Partition coefficient with Carrier liquid 1, Log P” value in data set [2] (Exp. No. 1, solvent methanol) is given as 0.35; in data set [2] (Exp. No. 2, solvent butanol) it was −0.45; in data set [2] (Exp. No. 3, solvent acetone), 0.16. Moreover, the “Partition coefficient with Carrier liquid 2, Log P” value in data set [1] (Exp. No. 4, solvent methanol) is recorded as −0.05; in data set [1] (Exp. No. 5, solvent butanol) it was −0.63; in data set [1] (Exp. No. 6, solvent acetone) it was −0.10.
